ChEMBL document CHEMBL3046543, “Larvicidal and adulticidal activity of alkylphthalide derivatives from rhizome of Cnidium officinale against Drosophila melanogaster” (J Agric Food Chem, 2005)

Columns and labels:
Assay type in all cases: functional
Drosophila melanogaster [1] = test: Relative toxicity, LC50 for rotenone Drosophila melanogaster larvicidal activity to LC50 for compound Drosophila melanogaster larvicidal activity
Drosophila melanogaster [2] = test: Insecticidal activity against 5 to 7 days old adult Drosophila melanogaster assessed as mortality measured as inability to move compound treated in diet at 25 degC and >90% RH treated for 8 days
Drosophila melanogaster [3] = test: Relative toxicity, LD50 for rotenone Drosophila melanogaster adulticidal activity to LD50 for compound Drosophila melanogaster adulticidal activity
Drosophila melanogaster [4] = test: Insecticidal activity against Drosophila melanogaster larvae assessed as mortality compound treated in diet at 25 degC and >90% RH treated for 8 days; conditions: feed or water, 192 h

## CCCC[C@@H]1OC(=O)C2=CCCC[C@H]21 [NEOCNIDILIDE]
Drosophila melanogaster [1]
  RatioLC50: 0.002
Drosophila melanogaster [2]
  LD50: 10.82 µg
Drosophila melanogaster [3]
  Ratio: 0.34
Drosophila melanogaster [4]
  LC50: 9.9 mM

## CCCC[C@@H]1OC(=O)[C@@H]2C=CCC[C@H]12 [CNIDILIDE]
Drosophila melanogaster [1]
  RatioLC50: <0.001
Drosophila melanogaster [2]
  LD50: 9.17 µg
Drosophila melanogaster [3]
  Ratio: 0.4
Drosophila melanogaster [4]
  LC50: > 16 mM

## CCCC[C@@H]1OC(=O)c2ccccc21 [(3S)-BUTYLPHTHALIDE]
Drosophila melanogaster [1]
  RatioLC50: 0.004
Drosophila melanogaster [2]
  LD50: 5.93 µg
Drosophila melanogaster [3]
  Ratio: 0.62
Drosophila melanogaster [4]
  LC50: 4.99 mM

## C=C(C)[C@H]1Cc2c(ccc3c2O[C@@H]2COc4cc(OC)c(OC)cc4[C@@H]2C3=O)O1 [ROTENONE]
Drosophila melanogaster [1]
  RatioLC50: 1
Drosophila melanogaster [2]
  LD50: 3.68 µg
Drosophila melanogaster [3]
  Ratio: 1
Drosophila melanogaster [4]
  LC50: 0.02 mM

## CCC/C=C1\OC(=O)C2=C1CCC=C2 [LIGUSTILIDE]
Drosophila melanogaster [1]
  RatioLC50: 0.009
Drosophila melanogaster [2]
  LD50: >50 µg
Drosophila melanogaster [3]
  Ratio: <0.07
Drosophila melanogaster [4]
  LC50: 2.54 mM
